According to paper PMC11145868, “Protein target similarity is positive predictor of in vitro antipathogenic activity: a drug repurposing strategy for Plasmodium falciparum” (Journal of Cheminformatics, 2024):
Structures can show the parent of a compound that is named as a salt. Where two headings read alike, the source gives them in different places.

Tests used:
P. falciparum Dd2-HLH [1] = test: microbe, parasite or virus in culture; type: cell-based, Plasmodium falciparum
P. falciparum Dd2-HLH [2] = test: microbe, parasite or virus in culture; type: cell-based, Plasmodium falciparum; settings: read-out: Blood stage 72h EC50
[3] = system: P. berghei-luciferase sporozoites; test: microbe, parasite or virus in culture; type: cell-based, Plasmodium berghei; settings: liver-stage parasites, 48 hours in culture, read-out: Liver stage 48h EC50
[4] = Mammalian cell cytotoxicity assay, HEK293T (CellTiter-Glo, 72 h); settings: human, HEK293T cells
[5] = Plasmodium falciparum, DD2, 48 h, read-out: Blood stage 48h EC50
[6] = Plasmodium falciparum, DD2, 72 h
[7] = P. falciparum blood-stage parasites, 48 hours in culture, read-out: Blood stage 48h EC50
[8] = P. falciparum blood-stage parasites, 72 hours in culture

Row | Compound | EC50 (P. falciparum Dd2-HLH [1]; [5]) [nM] | EC50 (P. falciparum Dd2-HLH [2]; [6]) [nM] | EC50 ([3]; Plasmodium berghei, HepG2) [nM] | CC50 at 72 h [4] [nM] | EC50 (P. falciparum Dd2-HLH [1]; Plasmodium falciparum, DD2, read-out: EC50 (antiplasmodial, quoted in discussion from Supplementary Table 1)) [nM] | EC50 (P. falciparum Dd2-HLH [1]; [7]) [nM] | EC50 (P. falciparum Dd2-HLH [2]; [8]) [nM] | EC50 [3] [nM] | EC50 (P. falciparum Dd2-HLH [1]; Plasmodium falciparum, DD2, Hec50, 48 h, read-out: Blood stage 48 h EC50) [nM]
1 | C[C@@H](Oc1ccc2[nH]nc(/C=C/c3cnn(CCO)c3)c2c1)c1c(Cl)cncc1Cl [LY-2874455] | 512 | 733 | 2360 | 875 |  |  |  |  | 
2 | CC[C@H](C(=O)N1CCCC[C@H]1C(=O)O[C@H](CCc1ccc(OC)c(OC)c1)c1cccc(OCC(=O)NCCNC(=O)COc2cccc([C@@H](CCc3ccc(OC)c(OC)c3)OC(=O)[C@@H]3CCCCN3C(=O)[C@@H](CC)c3cc(OC)c(OC)c(OC)c3)c2)c1)c1cc(OC)c(OC)c(OC)c1 [Rimiducid] | 59 | 411 | > 10000 | > 9950 |  |  |  |  | 
3 | COC(=O)C[C@](O)(CCC(C)(C)O)C(=O)O[C@@H]1C(OC)=C[C@]23CCCN2CCc2cc4c(cc2[C@H]13)OCO4 [harringtonine, reference compound] | 24 | 43 | 29 |  | 6.1 |  |  |  | 
4 | COc1cccc2c1C(=O)c1c(O)c3c(c(O)c1C2=O)C[C@@](O)(C(=O)CO)C[C@@H]3O[C@H]1C[C@H](N)[C@@H](O)[C@H](C)O1 [Epirubicin HCl] | 271 | 366 | 1480 | 103 |  |  |  |  | 
5 | CN(NC(=O)CC(=O)NN(C)C(=S)c1ccccc1)C(=S)c1ccccc1 [Elesclomol] | 196 | 437 | > 10000 | 169 |  |  |  |  | 
6 | Cc1cc(Nc2nc(C(O)c3ccc(F)cc3)nc3ccccc23)n[nH]1 (stereo not shown) [AC-430] | 1200 | 924 | 4210 | > 9950 |  |  |  |  | 
7 | C/C=C/C[C@@H](C)C(=O)[C@H]1C(=O)N[C@@H](C(C)C)C(=O)N(C)CC(=O)N(C)[C@@H](CC(C)C)C(=O)N[C@@H](C(C)C)C(=O)N(C)[C@@H](CC(C)C)C(=O)N[C@@H](C)C(=O)N[C@H](C)C(=O)N(C)[C@@H](CC(C)C)C(=O)N(C)[C@@H](CC(C)C)C(=O)N(C)[C@@H](C(C)C)C(=O)N1C [Valspodar] | 307 | 370 | 3 | > 9950 |  |  |  |  | 
8 | CC(C)n1nc(-c2ccc3oc(N)nc3c2)c2c(N)ncnc21 [Sapanisertib] | 187 | 305 | 665 | 102 |  |  |  |  | 
9 | COc1ccc(CCN2CCC(Nc3nc4ccccc4n3Cc3ccc(F)cc3)CC2)cc1 [Astemizole] |  |  |  | > 9950 |  |  |  |  | 
10 | COc1ccc(C[C@H]2NC[C@H](O)[C@H]2OC(C)=O)cc1 [Anisomycin] |  |  |  |  |  | 44 | 61 | 266 | 
11 | CC(C)C[C@H](NC(=O)[C@H](Cc1ccccc1)NC(=O)c1cnccn1)B(O)O [Bortezomib] | 91 | 82 | 12 | 25 |  |  |  |  | 
12 | C=CCn1c(=O)c2cnc(Nc3ccc(N4CCN(C)CC4)cc3)nc2n1-c1cccc(C(C)(C)O)n1 [MK-1775] | 595 | 681 | 6100 | 310 |  |  |  |  | 
13 | FC(F)c1nc2ccccc2n1-c1nc(N2CCOCC2)nc(N2CCOCC2)n1 [ZSTK-474] | 238 | 841 | 973 | 762 |  |  |  |  | 
14 | CCC1=C[C@@H]2CN(C1)Cc1c([nH]c3ccccc13)[C@@](C(=O)OC)(c1cc3c(cc1OC)N(C)[C@H]1[C@@](O)(C(=O)OC)[C@H](OC(C)=O)[C@]4(CC)C=CCN5CC[C@]31[C@@H]54)C2 [Vinorelbine] | 171 | 809 |  | 2980 |  |  |  |  | 
15 | C=C[C@H]1C[N@@]2CC[C@H]1C[C@@H]2[C@@H](O)c1ccnc2ccc(OC)cc12 [Quinidine] | 41 | 84 | > 10000 | > 9950 |  |  |  |  | 
16 | COc1cc2c(Oc3ccc(NC(=O)C4(C(=O)Nc5ccc(F)cc5)CC4)cc3F)ccnc2cc1OCCCN1CCOCC1 [Foretinib] | 139 | 859 | 6050 | 2370 |  |  |  |  | 
17 | CCc1cc2c(cc1CC)CC(NC[C@H](O)c1ccc(O)c3[nH]c(=O)ccc13)C2 [Indacaterol maleate] | 682 | 951 | 3110 | > 9950 |  |  |  |  | 
18 | OC1(c2ccc(Cl)c(C(F)(F)F)c2)CCN(CCCC(c2ccc(F)cc2)c2ccc(F)cc2)CC1 [Penfluridol] | 218 | 524 | 3170 | 1900 |  |  |  |  | 
19 | C/C1=C/C[C@@H](/C(C)=C/c2csc(C)n2)OC(=O)C[C@H](O)C(C)(C)C(=O)[C@H](C)[C@@H](O)[C@@H](C)CCC1 [Desoxyepothilone B] | 44 | 76 | 986 |  |  |  |  |  | 
20 | CO[C@@H]1[C@H](O)C[C@@H](O[C@@H]2C[C@H](Oc3cc4cc5c(c(O)c4c(O)c3C)C(=O)[C@@H](O[C@H]3C[C@@H](O[C@H]4C[C@@H](O[C@H]6C[C@](C)(O)[C@@H](OC(C)=O)[C@H](C)O6)[C@H](O)[C@@H](C)O4)[C@H](O)[C@@H](C)O3)[C@H]([C@H](OC)C(=O)[C@@H](O)[C@@H](C)O)C5)O[C@H](C)[C@@H]2OC(C)=O)O[C@@H]1C [Chromomycin A3] | 31 | 48 | 30 |  |  |  |  |  | 
21 | O=C(Nc1c[nH]nc1-c1nc2ccc(CN3CCOCC3)cc2[nH]1)NC1CC1 [AT-9283] | 129 | 864 | 569 |  |  |  |  |  | 
22 | Oligomycin A |  |  |  |  |  | 57 | 168 | 578 | 
23 | CC(C)c1cc(CNc2nc(Nc3cc(C4CC4)[nH]n3)cc(N3CCN(C)CC3)n2)on1 [XL-228] | 56 | 621 |  | 537 |  |  |  |  | 
24 | CO[C@@H]1[C@H](N(C)C(=O)c2ccccc2)C[C@H]2O[C@]1(C)n1c3ccccc3c3c4c(c5c6ccccc6n2c5c31)C(=O)NC4 [Midostaurin] | 86 |  | 3600 | > 9950 |  |  |  |  | 
25 | COC(=O)[C@@]12OC[C@]34[C@H]([C@@H](O)[C@@H]1O)[C@@]1(C)CC(=O)C(O)=C(C)[C@@H]1C[C@H]3OC(=O)[C@H](OC(=O)/C=C(\C)C(C)C)[C@@H]24 [Bruceantin, reference compound] |  | 7 |  | 25 |  |  |  |  | 5
26 | Cc1ccc(C(=O)Nc2ccc(CN3CCN(C)CC3)c(C(F)(F)F)c2)cc1C#Cc1cnc2cccnn12 [Pon/atinib] | 294 | 555 | 241 |  |  |  |  |  | 
